Each structure is given as a SMILES string. Values joined by “and” are separate entries in the source; they are usually repeats but may differ in a detail not shown here. Equal values may be shown once.

Data set [1] deals with U87MG tumor xenografts. Nature of the data set: Biodistribution (ex vivo γ-counting of organs) in U87MG tumor xenograft mice. Particulars: for Tumor uptake: i.v., mean ± SD, n = 3. Details: species or system nude mice (female BALB/c nu/nu). As for the experimental part: (§1) All animal experimental procedures and protocols were approved by the Institutional Animal Care and Use Committee (Renji Hospital, School of Medicine, Shanghai Jiao Tong University). For subcutaneous models, U87MG cells (2 × 10^6 cells in 100 μl PBS) were implanted into the right flank of female BALB/c nu/nu athymic mice to establish subcutaneous tumor xenografts. For orthotopic xenografts, U87MG cells (0.5 × 10^6 cells in […] PBS) were transplanted into the brains of female BALB/c nude mice (4–6 weeks old). The subcutaneous and orthotopic models were ready for PET imaging 3 weeks after tumor cell inoculation.
U87MG mice were injected with 3.7 MBq of each tracer and sacrificed at different times (30, 60, and 90 min p.i.; n = 3 for each time point). The main organs, including the kidney, intestine, liver, heart, lung, muscle, brain, and tumors, were isolated, weighed, and analyzed. The biodistribution in the [^68Ga] Ga-DOTA-FAPI-04 group (3.7 MBq) with approximately 100 μg of unlabeled DOTA-FAPI-04 was also evaluated for comparison. The radioactivity of the samples was determined using an automated γ-counter (Perkin-Elmer), and the uptake of the radiotracers in different organs/tissues was calculated and presented as percent of injected dose per Gram of tissue (%ID/g, mean ± SD).

The nature of data set [2]: In vitro stability in PBS at 37°C (radio-HPLC). In kind it is physicochemical. Particulars: 150 min. As for the experimental part: The radiochemical purities were analyzed by a radio-HPLC column (C18-B, 250 mm × 4.6 mm, 5 μm, 120 Å, Morhchem Technologies Inc., United States) (details presented in the Supplementary Material).
The test system of data set [3] is U87MG orthotopic xenograft glioma. Nature of the data set: Small-animal PET in the U87MG orthotopic xenograft glioma model. Format: in vivo, nude mice (female BALB/c). Particulars: 60 min p.i., n = 3. As for the experimental part:
as §1
Ga-DOTA-FAPI-04 were diluted or concentrated to a 74 MBq/mL. […] Ga-DOTA-FAPI-04 was intravenously injected into U87MG tumor-bearing nude mice (n = 3 for each group). For static PET imaging, the acquisition times were 30, 60, and 90 min postinjection (p.i.). Each static scan consists of CT scan and PET scan. The CT scan time is 20 s and the PET scan time is 10 min. […] Regions of interest (ROIs) in the tumor, liver, heart, kidney, brain, and lung were counted on the PET images to quantify the radioactive signals. […] PET data were reconstructed with three-dimensional ordered-subset expectation-maximization (3D-OSEM) algorithm with Monte-Carlo based accurate detector model and subsequently was analyzed with Avatar 1.2 software (Pingseng China).

Data set [4] concerns FAP. Also on record: method as in PMID 32222810. The settings on record: ref (3); cited from earlier work.
Where [5] appears, read: 60 min p.i. (time taken from the order of the sentence).
[6] abbreviates: 90 min p.i. (time taken from the order of the sentence).
Where [7] appears, read: time printed as 'at 60 and 90 min p.i.', one value per probe.

In data set [1] (30 min p.i.), `COc1ccc2nccc(C(=O)NCC(=O)N3CCC[C@H]3C#N)c2c1` [^11C-RJ1101, (S)-N-(2-(2-cyanopyrrolidin-1-yl)-2-oxoethyl)-6-(methoxy-11C)quinoline-4-carboxamide] displayed a Brain uptake of 0.18 ± 0.02 %ID/g, a Heart uptake of 0.59 ± 0.01 %ID/g, an Intestine uptake of 4.95 ± 0.31 %ID/g and a Kidney uptake of 1.28 ± 0.06 %ID/g. In addition, in data set [1] (30 min p.i.), the Liver uptake worked out at 7.20 ± 1.71 %ID/g, the Lung uptake stood at 0.56 ± 0.08 %ID/g, the Muscle uptake is 0.42 ± 0.04 %ID/g and the “T/L ratio (tumor/liver)” value is reported as 0.19 ± 0.03. Also, in data set [1] (30 min p.i.), the “tumor-to-muscle (T/M) ratio” value was determined as 3.19 ± 0.06 and the Tumor uptake is recorded as 1.34 ± 0.10 %ID/g. Moreover, in data set [1] (60 min p.i.), the Brain uptake amounted to 0.02 ± 0.00 %ID/g, the Heart uptake is recorded as 0.06 ± 0.01 %ID/g, the Intestine uptake amounted to 2.72 ± 0.45 %ID/g and the Kidney uptake is 0.17 ± 0.02 %ID/g. Besides, in data set [1] (60 min p.i.), the Liver uptake was 0.24 ± 0.03 %ID/g, the Lung uptake worked out at 0.05 ± 0.01 %ID/g, the Muscle uptake was determined as 0.06 ± 0.01 %ID/g and the “T/L ratio (tumor/liver)” value amounted to 0.63 ± 0.04. Moreover, in data set [1] (60 min p.i.), the “tumor-to-muscle (T/M) ratio” value is listed as 2.26 ± 0.25 and the Tumor uptake was determined as 0.15 ± 0.01 %ID/g. Also, the “T/K ratio (tumor/kidney)” value in data set [1] (setting [5]) is listed as 0.89 ± 0.05. Also, in data set [1] (90 min p.i.), the Heart uptake is reported as 0.01 ± 0.00 %ID/g, the Intestine uptake amounted to 0.67 ± 0.02 %ID/g, the Kidney uptake worked out at 0.03 ± 0.00 %ID/g and the Liver uptake amounted to 0.06 ± 0.00 %ID/g. Also, in data set [1] (90 min p.i.), the Lung uptake is reported as 0.01 ± 0.00 %ID/g, the Muscle uptake was determined as 0.01 ± 0.00 %ID/g, the “T/L ratio (tumor/liver)” value was 0.34 ± 0.06 and the “tumor-to-muscle (T/M) ratio” value is 2.00 ± 0.00. This molecule returned a Tumor uptake in data set [1] (90 min p.i.) of 0.02 ± 0.00 %ID/g. Besides, in data set [1] (setting [6]), the “T/K ratio (tumor/kidney)” value came to 0.67 ± 0.01. Besides, the “T/K ratio (tumor/kidney)” value in data set [1] (setting [7]) came out at 1.05 ± 0.03. In data set [2], the “radioactive purity after incubation in PBS (in vitro stability)” value is “over 99%”.

As to `[11CH3]Oc1ccc2nccc(C(=O)NCC(=O)N3CC(F)(F)C[C@H]3C#N)c2c1` [^11C-RJ1102, (S)-N-(2-(2-cyano-4,4-difluoropyrrolidin-1-yl)-2-oxoethyl)-6-(methoxy-11C) quinoline-4-carboxamide], in data set [3], the “tumor accumulation (small-animal PET)” value turned out to be 0.22 ± 0.02 ID%/g. In data set [1] (30 min p.i.), this molecule displayed a Brain uptake of 0.16 ± 0.01 %ID/g, a Heart uptake of 0.78 ± 0.10 %ID/g, an Intestine uptake of 5.08 ± 0.24 %ID/g and a Kidney uptake of 1.84 ± 0.01 %ID/g. For the same molecule, in data set [1] (30 min p.i.), the Liver uptake came to 2.87 ± 0.12 %ID/g, the Lung uptake is on record as 0.65 ± 0.02 %ID/g, the Muscle uptake was 0.74 ± 0.03 %ID/g and the “T/L ratio (tumor/liver)” value is given as 0.60 ± 0.03. Besides, in data set [1] (30 min p.i.), the “tumor-to-muscle (T/M) ratio” value is 2.30 ± 0.32 and 2.30 ± 0.02; the Tumor uptake was found to be 1.71 ± 0.08 %ID/g. In data set [1] (60 min p.i.), this molecule returned a Brain uptake of 0.07 ± 0.03 %ID/g, a Heart uptake of 0.26 ± 0.01 %ID/g, an Intestine uptake of 2.63 ± 0.28 %ID/g and a Kidney uptake of 0.48 ± 0.02 %ID/g. Further, in data set [1] (60 min p.i.), the Liver uptake was 1.00 ± 0.05 %ID/g, the Lung uptake worked out at 0.25 ± 0.03 %ID/g, the Muscle uptake came out at 0.20 ± 0.01 %ID/g and the “T/L ratio (tumor/liver)” value is 0.62 ± 0.03. Also, in data set [1] (60 min p.i.), the “tumor-to-muscle (T/M) ratio” value turned out to be 3.10 ± 0.14 and the Tumor uptake was 0.62 ± 0.06 %ID/g. In addition, the “T/K ratio (tumor/kidney)” value in data set [1] (setting [5]) stood at 1.29 ± 0.07. In data set [1] (90 min p.i.), this molecule yielded a Brain uptake of 0.02 ± 0.01 %ID/g, a Heart uptake of 0.07 ± 0.01 %ID/g, an Intestine uptake of 1.10 ± 0.25 %ID/g and a Kidney uptake of 0.13 ± 0.02 %ID/g. In addition, in data set [1] (90 min p.i.), the Liver uptake is given as 0.29 ± 0.02 %ID/g, the Lung uptake is 0.06 ± 0.01 %ID/g, the Muscle uptake is 0.04 ± 0.00 %ID/g and the “T/L ratio (tumor/liver)” value was 0.62 ± 0.03. In addition, in data set [1] (90 min p.i.), the “tumor-to-muscle (T/M) ratio” value came out at 4.50 ± 0.50 and the Tumor uptake was 0.18 ± 0.02 %ID/g. Moreover, the “T/K ratio (tumor/kidney)” value in data set [1] (setting [6]) is reported as 1.39 ± 0.06. The “T/K ratio (tumor/kidney)” value in data set [1] (setting [7]) came to 0.93 ± 0.04. For the same molecule, the “radioactive purity after incubation in PBS (in vitro stability)” value in data set [2] was “over 99%”.

With `COc1ccc2nccc(C(=O)NCC(=O)N3CC(F)(F)C[C@H]3C#N)c2c1` [compound 4, (S)-N-(2-(2-cyano-4,4-difluoropyrrolidin-1-yl)-2-oxoethyl)-6-(methoxy)quinoline-4-carboxamide], the IC50 (as a rule, the concentration needed to halve the response being measured) in data set [4] was 8.5 ± 0.9 nM.

The record behind these values is paper PMC9388731, “Radiosynthesis and First Preclinical Evaluation of the Novel ^11C-Labeled FAP Inhibitor ^11C-FAPI: A Comparative Study of ^11C-FAPIs and (^68Ga) Ga-DOTA-FAPI-04 in a High–FAP-Expression Mouse Model” (Frontiers in Chemistry, 2022).
